# Assays:
# Type in all cases: functional, organism-based
# [1] = system: Plasmodium falciparum; assay: Antimalarial activity against multidrug-resistant Plasmodium falciparum TM91C235 assessed as inhibition of [3H]hypoxanthine incorporation after 96 hrs by microtiter plate scintillation counting
# [2] = system: Plasmodium falciparum; assay: Antimalarial activity against chloroquine-,pyrimethamine-resistant Plasmodium falciparum W2 assessed as inhibition of [3H]hypoxanthine incorporation after 96 hrs by microtiter plate scintillation counting
# [3] = system: Plasmodium falciparum; assay: Antimalarial activity against chloroquine-sensitive Plasmodium falciparum D6 assessed as inhibition of [3H]hypoxanthine incorporation after 96 hrs by microtiter plate scintillation counting
smiles,measurement,setting,value
CC[C@H]1OC(=O)[C@H](C)[C@@H](O[C@H]2C[C@@](C)(OC)[C@@H](O)[C@H](C)O2)[C@H](C)[C@@H](O[C@@H]2O[C@H](C)C[C@H](N(C)C)[C@H]2O)[C@](C)(O)C[C@@H](C)CN(CCCNC(=S)Nc2ccc(Cl)cc2)[C@H](C)[C@@H](O)[C@]1(C)O,IC50,[1],108 nM
same,IC50,[2],53.4 nM
same,IC50,[3],188 nM
CC[C@H]1OC(=O)[C@H](C)[C@@H](O[C@H]2C[C@@](C)(OC)[C@@H](O)[C@H](C)O2)[C@H](C)[C@@H](O[C@@H]2O[C@H](C)C[C@H](N(C)C)[C@H]2O)[C@](C)(O)C[C@@H](C)CN(CCCNC(=S)Nc2ccc(N(C)C)c3ccccc23)[C@H](C)[C@@H](O)[C@]1(C)O,IC50,[1],180 nM
same,IC50,[2],175 nM
same,IC50,[3],326 nM
CC[C@H]1OC(=O)[C@H](C)[C@@H](O[C@H]2C[C@@](C)(OC)[C@@H](O)[C@H](C)O2)[C@H](C)[C@@H](O[C@@H]2O[C@H](C)C[C@H](N(C)C)[C@H]2O)[C@](C)(O)C[C@@H](C)CN(CCCNC(=O)NC2CCN(C(=O)OCc3ccccc3)CC2)[C@H](C)[C@@H](O)[C@]1(C)O,IC50,[1],236 nM
same,IC50,[2],276 nM
same,IC50,[3],635 nM
CC[C@H]1OC(=O)[C@H](C)[C@@H](O[C@H]2C[C@@](C)(OC)[C@@H](O)[C@H](C)O2)[C@H](C)[C@@H](O[C@@H]2O[C@H](C)C[C@H](N(C)C)[C@H]2O)[C@](C)(O)C[C@@H](C)CN(CCCNC(=S)NCC23CC4CC(CC(C4)C2)C3)[C@H](C)[C@@H](O)[C@]1(C)O,IC50,[1],152 nM
same,IC50,[2],210 nM
same,IC50,[3],553 nM
CC[C@H]1OC(=O)[C@H](C)[C@@H](O[C@H]2C[C@@](C)(OC)[C@@H](O)[C@H](C)O2)[C@H](C)[C@@H](O[C@@H]2O[C@H](C)C[C@H](N(C)C)[C@H]2O)[C@](C)(O)C[C@@H](C)CN(CCCNC(=S)Nc2ccc(F)cc2)[C@H](C)[C@@H](O)[C@]1(C)O,IC50,[1],139 nM
same,IC50,[2],72.8 nM
same,IC50,[3],320 nM
CC[C@H]1OC(=O)[C@H](C)[C@@H](O[C@H]2C[C@@](C)(OC)[C@@H](O)[C@H](C)O2)[C@H](C)[C@@H](O[C@@H]2O[C@H](C)C[C@H](N(C)C)[C@H]2O)[C@](C)(O)C[C@@H](C)CN(CCCNC(=S)NCCN2CCOCC2)[C@H](C)[C@@H](O)[C@]1(C)O,IC50,[1],3320 nM
same,IC50,[2],2090 nM
same,IC50,[3],12400 nM
CC[C@H]1OC(=O)[C@H](C)[C@@H](O[C@H]2C[C@@](C)(OC)[C@@H](O)[C@H](C)O2)[C@H](C)[C@@H](O[C@@H]2O[C@H](C)C[C@H](N(C)C)[C@H]2O)[C@](C)(O)C[C@@H](C)CN(CCCNC(=S)Nc2ccc(Cl)c(Cl)c2)[C@H](C)[C@@H](O)[C@]1(C)O,IC50,[1],84.2 nM
same,IC50,[2],229 nM
same,IC50,[3],296 nM
CC[C@H]1OC(=O)[C@H](C)[C@@H](O[C@H]2C[C@@](C)(OC)[C@@H](O)[C@H](C)O2)[C@H](C)[C@@H](O[C@@H]2O[C@H](C)C[C@H](N(C)C)[C@H]2O)[C@](C)(O)C[C@@H](C)CN(CCCNC(=S)Nc2ccc(C#N)cc2)[C@H](C)[C@@H](O)[C@]1(C)O,IC50,[1],78.2 nM
same,IC50,[2],50 nM
same,IC50,[3],132 nM
CC[C@H]1OC(=O)[C@H](C)[C@@H](O[C@H]2C[C@@](C)(OC)[C@@H](O)[C@H](C)O2)[C@H](C)[C@@H](O[C@@H]2O[C@H](C)C[C@H](N(C)C)[C@H]2O)[C@](C)(O)C[C@@H](C)CN(CCCNC(=S)Nc2ccc(S(=O)(=O)N3CCCCC3)cc2)[C@H](C)[C@@H](O)[C@]1(C)O,IC50,[1],68 nM
same,IC50,[2],53 nM
same,IC50,[3],174 nM
CC[C@H]1OC(=O)[C@H](C)[C@@H](O[C@H]2C[C@@](C)(OC)[C@@H](O)[C@H](C)O2)[C@H](C)[C@@H](O[C@@H]2O[C@H](C)C[C@H](N(C)C)[C@H]2O)[C@](C)(O)C[C@@H](C)CN(CCCNC(=O)NCC2CCCCC2)[C@H](C)[C@@H](O)[C@]1(C)O,IC50,[1],142 nM
same,IC50,[2],113 nM
same,IC50,[3],610 nM
CC[C@H]1OC(=O)[C@H](C)[C@@H](O[C@H]2C[C@@](C)(OC)[C@@H](O)[C@H](C)O2)[C@H](C)[C@@H](O[C@@H]2O[C@H](C)C[C@H](N(C)C)[C@H]2O)[C@](C)(O)C[C@@H](C)CN(CCCNC(=O)Nc2ccc(C(C)C)cc2)[C@H](C)[C@@H](O)[C@]1(C)O,IC50,[1],78.3 nM
same,IC50,[2],70.9 nM
same,IC50,[3],225 nM
CC[C@H]1OC(=O)[C@H](C)[C@@H](O[C@H]2C[C@@](C)(OC)[C@@H](O)[C@H](C)O2)[C@H](C)[C@@H](O[C@@H]2O[C@H](C)C[C@H](N(C)C)[C@H]2O)[C@](C)(O)C[C@@H](C)CN(CCCNC(=O)Nc2cccc3nsnc23)[C@H](C)[C@@H](O)[C@]1(C)O,IC50,[1],64.7 nM
same,IC50,[2],69.2 nM
same,IC50,[3],266 nM
CC[C@H]1OC(=O)[C@H](C)[C@@H](O[C@H]2C[C@@](C)(OC)[C@@H](O)[C@H](C)O2)[C@H](C)[C@@H](O[C@@H]2O[C@H](C)C[C@H](N(C)C)[C@H]2O)[C@](C)(O)C[C@@H](C)CN(CCCNC(=O)Nc2cc(C(=O)OC)cc(C(=O)OC)c2)[C@H](C)[C@@H](O)[C@]1(C)O,IC50,[1],411 nM
same,IC50,[2],120 nM
same,IC50,[3],648 nM
CC[C@H]1OC(=O)[C@H](C)[C@@H](O[C@H]2C[C@@](C)(OC)[C@@H](O)[C@H](C)O2)[C@H](C)[C@@H](O[C@@H]2O[C@H](C)C[C@H](N(C)C)[C@H]2O)[C@](C)(O)C[C@@H](C)CN(CCCNC(=S)Nc2ccc(C)cc2)[C@H](C)[C@@H](O)[C@]1(C)O,IC50,[1],164 nM
same,IC50,[2],71.3 nM
same,IC50,[3],330 nM
CC[C@H]1OC(=O)[C@H](C)[C@@H](O[C@H]2C[C@@](C)(OC)[C@@H](O)[C@H](C)O2)[C@H](C)[C@@H](O[C@@H]2O[C@H](C)C[C@H](N(C)C)[C@H]2O)[C@](C)(O)C[C@@H](C)CN(CCCNC(=S)NC(c2ccccc2)c2ccccc2)[C@H](C)[C@@H](O)[C@]1(C)O,IC50,[1],55 nM
same,IC50,[2],37.7 nM
same,IC50,[3],218 nM
CC[C@H]1OC(=O)[C@H](C)[C@@H](O[C@H]2C[C@@](C)(OC)[C@@H](O)[C@H](C)O2)[C@H](C)[C@@H](O[C@@H]2O[C@H](C)C[C@H](N(C)C)[C@H]2O)[C@](C)(O)C[C@@H](C)CN(CCCNC(=S)Nc2ccc(-n3cccn3)cc2)[C@H](C)[C@@H](O)[C@]1(C)O,IC50,[1],101 nM
same,IC50,[2],109 nM
same,IC50,[3],160 nM
CC[C@H]1OC(=O)[C@H](C)[C@@H](O[C@H]2C[C@@](C)(OC)[C@@H](O)[C@H](C)O2)[C@H](C)[C@@H](O[C@@H]2O[C@H](C)C[C@H](N(C)C)[C@H]2O)[C@](C)(O)C[C@@H](C)CN(CCCNC(=O)Nc2cc(F)cc3c2OCOC3)[C@H](C)[C@@H](O)[C@]1(C)O,IC50,[1],220 nM
same,IC50,[2],306 nM
same,IC50,[3],284 nM
CC[C@H]1OC(=O)[C@H](C)[C@@H](O[C@H]2C[C@@](C)(OC)[C@@H](O)[C@H](C)O2)[C@H](C)[C@@H](O[C@@H]2O[C@H](C)C[C@H](N(C)C)[C@H]2O)[C@](C)(O)C[C@@H](C)CN(CCCNC(=S)Nc2ccc(OCc3ccccc3)cc2)[C@H](C)[C@@H](O)[C@]1(C)O,IC50,[1],160 nM
same,IC50,[2],88.9 nM
same,IC50,[3],249 nM
CC[C@H]1OC(=O)[C@H](C)[C@@H](O[C@H]2C[C@@](C)(OC)[C@@H](O)[C@H](C)O2)[C@H](C)[C@@H](O[C@@H]2O[C@H](C)C[C@H](N(C)C)[C@H]2O)[C@](C)(O)C[C@@H](C)CN(CCCNC(=O)Nc2ccc(OCc3ccccc3)cc2)[C@H](C)[C@@H](O)[C@]1(C)O,IC50,[1],146 nM
same,IC50,[2],175 nM
same,IC50,[3],299 nM
CC[C@H]1OC(=O)[C@H](C)[C@@H](O[C@H]2C[C@@](C)(OC)[C@@H](O)[C@H](C)O2)[C@H](C)[C@@H](O[C@@H]2O[C@H](C)C[C@H](N(C)C)[C@H]2O)[C@](C)(O)C[C@@H](C)CN(CCCNC(=O)Nc2cccc(C(F)(F)F)c2)[C@H](C)[C@@H](O)[C@]1(C)O,IC50,[1],72.8 nM
same,IC50,[2],135 nM
same,IC50,[3],257 nM
CC[C@H]1OC(=O)[C@H](C)[C@@H](O[C@H]2C[C@@](C)(OC)[C@@H](O)[C@H](C)O2)[C@H](C)[C@@H](O[C@@H]2O[C@H](C)C[C@H](N(C)C)[C@H]2O)[C@](C)(O)C[C@@H](C)CN(CCCNC(=S)Nc2ccc(OC)cc2)[C@H](C)[C@@H](O)[C@]1(C)O,IC50,[1],209 nM
same,IC50,[2],77 nM
same,IC50,[3],480 nM
CC[C@H]1OC(=O)[C@H](C)[C@@H](O[C@H]2C[C@@](C)(OC)[C@@H](O)[C@H](C)O2)[C@H](C)[C@@H](O[C@@H]2O[C@H](C)C[C@H](N(C)C)[C@H]2O)[C@](C)(O)C[C@@H](C)CN(CCCNC(=S)Nc2ccc(N3CCOCC3)nc2)[C@H](C)[C@@H](O)[C@]1(C)O,IC50,[1],1570 nM
same,IC50,[2],1960 nM
same,IC50,[3],2840 nM
CC[C@H]1OC(=O)[C@H](C)[C@@H](O[C@H]2C[C@@](C)(OC)[C@@H](O)[C@H](C)O2)[C@H](C)[C@@H](O[C@@H]2O[C@H](C)C[C@H](N(C)C)[C@H]2O)[C@](C)(O)C[C@@H](C)CN(CCCNC(=S)Nc2cccc(C(F)(F)F)c2)[C@H](C)[C@@H](O)[C@]1(C)O,IC50,[1],54 nM
same,IC50,[2],30.3 nM
same,IC50,[3],120 nM
CCC(C)NC(=O)NCCCN1C[C@H](C)C[C@@](C)(O)[C@H](O[C@@H]2O[C@H](C)C[C@H](N(C)C)[C@H]2O)[C@@H](C)[C@H](O[C@H]2C[C@@](C)(OC)[C@@H](O)[C@H](C)O2)[C@@H](C)C(=O)O[C@H](CC)[C@@](C)(O)[C@H](O)[C@H]1C (stereo partly drawn),IC50,[1],1180 nM
same,IC50,[2],489 nM
same,IC50,[3],14000 nM
CC[C@H]1OC(=O)[C@H](C)[C@@H](O[C@H]2C[C@@](C)(OC)[C@@H](O)[C@H](C)O2)[C@H](C)[C@@H](O[C@@H]2O[C@H](C)C[C@H](N(C)C)[C@H]2O)[C@](C)(O)C[C@@H](C)CN(CCCNC(=O)NC(C)(C)CC(C)(C)C)[C@H](C)[C@@H](O)[C@]1(C)O,IC50,[1],183 nM
same,IC50,[2],78.4 nM
same,IC50,[3],269 nM
CC[C@H]1OC(=O)[C@H](C)[C@@H](O[C@H]2C[C@@](C)(OC)[C@@H](O)[C@H](C)O2)[C@H](C)[C@@H](O[C@@H]2O[C@H](C)C[C@H](N(C)C)[C@H]2O)[C@](C)(O)C[C@@H](C)CN(CCCNC(=O)Nc2cc(C)oc2C(F)(F)F)[C@H](C)[C@@H](O)[C@]1(C)O,IC50,[1],320 nM
same,IC50,[2],310 nM
same,IC50,[3],361 nM

# Source: ChEMBL document CHEMBL1681728, “An automated, polymer-assisted strategy for the preparation of urea and thiourea derivatives of 15-membered azalides as potential antimalarial chemotherapeutics” (Bioorg Med Chem, 2011)
